These are literature values, as cited in patent US20250135196A1, “COMPOSITIONS, SYSTEMS, AND METHODS FOR TREATING CANCER USING TUMOR TREATING FIELDS WITH INHIBITORS OF MIF, MICA, AND/OR MICB” (Brown University, priority 2023, published 2025).

Usually IC50 stands for the point on the concentration scale where inhibition reaches its midpoint. The term Ki denotes the dissociation constant of the complex between target and ligand, obtained from inhibition or displacement. Usually Kd stands for the constant that tells how readily two partners part at equilibrium.

One data set concerns the target T1, MIF-CD74 (Homo sapiens, UniProt P14174).
T1 sequence (P14174 2-115 limits assumed): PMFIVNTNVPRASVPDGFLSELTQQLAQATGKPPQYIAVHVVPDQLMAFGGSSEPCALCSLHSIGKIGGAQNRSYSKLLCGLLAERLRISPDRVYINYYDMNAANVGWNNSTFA
The settings on record: binding assay MIF-CD74; for Kd: read-out: Kd (BA).

Another data set addresses T2, MIF (Homo sapiens, UniProt P14174).
T2 sequence (P14174 2-115 limits assumed): T1 sequence (P14174 2-115 limits assumed)
The settings on record: tautomerase assay; for IC50 / Ki: literature values, reference number in brackets in cell; for fold more potent than ISO-1 (TA): relative to ISO-1; for Ki: read-out: Ki (TA).

The structures appear in SMILES notation.

As to `COC(=O)CC1CC(c2ccc(O)cc2)=NO1` (racemic) [ISO-1], the “Max. inhibition (BA)” value on MIF-CD74 (maximal inhibition) is reported as 40%.
As to `Ic1cc(-c2ccccc2)ncn1` [4-IPP, 4-iodo-6-phenylpyrimidine], the IC50 on MIF was 200 to 500 nM.
As for `O=C(CC1CC(c2ccc(F)cc2F)=NO1)N1CCOCC1` (stereo not shown) [CPS1-1306], the “fold more potent than ISO-1 (TA)” value at MIF is 100-fold more potent than ISO-1 [35] (TA).
With `CN(C(=O)CC1CC(c2ccc(Cl)cc2)=NO1)C1CCCCC1` (stereo not shown) [CPSI-2705], the “fold more potent than ISO-1 (TA)” value at MIF is on record as 2-10-fold more potent than ISO-1 (35) (TA).
For `O=C(O)c1cccc(Oc2cc(-c3cn(-c4ccc(O)c(F)c4)nn3)nc3ccccc23)c1` [Dziedzic-3bb], the Ki at MIF was 57 nM. Besides, on MIF-CD74, the Kd is 71 nM.
In the case of `COC(=O)CC1CC(c2ccc(O)c(F)c2)=NO1` (stereo not shown) [ISO-66], the IC50 on MIF is 1500 nM.
On to `COc1cccc(Cn2cc(-c3ccc(O)cc3)nn2)c1OC` [Jorgensen-3g], for which, at MIF-CD74, the IC50 is 900 nM.
On to `COC(=O)c1cccc(Cn2cc(-c3ccc(O)cc3)nn2)c1` [Jorgensen-3h], for which the IC50 on MIF-CD74 is 1000 nM.
Take `COc1ccc(N2Cc3ccc(O)cc3OC2=O)cc1` [NVS-2]: at MIF, the IC50 was 20 nM and the Ki is 27 nM. Moreover, the Kd on MIF-CD74 was 55 nM.
`Cc1ccccc1-c1cc2ccccc2c(=O)o1` [SCD-19]: the “inhibition (TA)” value at MIF (at concentration of 100 μM) was 100% inhibition at concentration of 100 μM [37] (TA).
